Experimental data as given in patent US10434138B2, “Formulations” (Sublimity Therapeutics Limited, priority 2013, dated 2019).
Where a name gives a salt, the structure may show the parent alone. Read-outs that look alike come from different tables or passages of the source.

Key:
[1] = conversion of the g/L value
[2] = cited from earlier work

SMILES: NNc1nncc2ccccc12 [Hydralazine HCl]
- solubility in water [1]: ~0.8%
- solubility in water [2]: approximately 8 g/L
